Source: article PMC5218480 (PLoS ONE, 2017)

Test system: MV-4-11 cells
Assay: Gene expression microarray analysis (Affymetrix PrimeView) and GSEA
Assay type: cell-based, human
Design: RFU PODN (11730768_x_at) / Fold change /veh PODN (11730768_x_at) / RFU LINC00158 (11744669_a_at) / Fold change /veh LINC00158 (11744669_a_at) / RFU DUSP10 (11751237_a_at) / Fold change /veh DUSP10 (11751237_a_at) / RFU ID3 (11757404_x_at) / Fold change /veh ID3 (11757404_x_at) / RFU PLEKHG5 (11737974_s_at) / Fold change /veh PLEKHG5 (11737974_s_at) / RFU LRRC4B (11730491_at) / Fold change /veh LRRC4B (11730491_at) / RFU GIMAP4 (11747438_a_at) / Fold change /veh GIMAP4 (11747438_a_at) / RFU KRT8 (11758183_x_at) / Fold change /veh KRT8 (11758183_x_at) / RFU CNN1 (11734310_a_at) / Fold change /veh CNN1 (11734310_a_at) / RFU VPS37D (11726825_at) / Fold change /veh VPS37D (11726825_at) / RFU C10orf10 (11716522_x_at) / Fold change /veh C10orf10 (11716522_x_at) / RFU KIR2DL2 /// KIR2DL4 /// KIR2DL5A /// KIR2DL5B /// KIR2DS1 /// KIR2DS2 /// KIR2DS3 /// KIR2DS4 /// KIR3DL3 /// KIR3DL3 /// KIR3DS1 (11738374_at) / Fold change /veh KIR2DL2 /// KIR2DL4 /// KIR2DL5A /// KIR2DL5B /// KIR2DS1 /// KIR2DS2 /// KIR2DS3 /// KIR2DS4 /// KIR3DL3 /// KIR3DL3 /// KIR3DS1 (11738374_at) / RFU C1QL1 (11718748_at) / Fold change /veh C1QL1 (11718748_at) / RFU TMPRSS4 (11747572_a_at) / Fold change /veh TMPRSS4 (11747572_a_at) / RFU HAMP (11756126_x_at) / Fold change /veh HAMP (11756126_x_at) / RFU RNFT2 (11725882_a_at) / Fold change /veh RNFT2 (11725882_a_at) / RFU NR4A2 (11747474_a_at) / Fold change /veh NR4A2 (11747474_a_at) / RFU ABCC12 (11746883_a_at) / Fold change /veh ABCC12 (11746883_a_at) / RFU TMEM136 (11760407_x_at) / Fold change /veh TMEM136 (11760407_x_at) / RFU CLDN22 /// WWC2 (11732394_at) / Fold change /veh CLDN22 /// WWC2 (11732394_at) / RFU HLA-DPB1 (11760878_x_at) / Fold change /veh HLA-DPB1 (11760878_x_at) / RFU SPINT1 (11716480_a_at) / Fold change /veh SPINT1 (11716480_a_at) / RFU GAP43 (11754022_s_at) / Fold change /veh GAP43 (11754022_s_at) / RFU A4GNT (11735810_at) / Fold change /veh A4GNT (11735810_at) / RFU PRB3 (11715151_x_at) / Fold change /veh PRB3 (11715151_x_at) / RFU TUBB4B (11761932_at) / Fold change /veh TUBB4B (11761932_at) / RFU CAPN14 (11732068_a_at) / Fold change /veh CAPN14 (11732068_a_at) / RFU TMCC2 (11721928_a_at) / Fold change /veh TMCC2 (11721928_a_at) / RFU IRGQ (11745062_a_at) / Fold change /veh IRGQ (11745062_a_at) / RFU FAM174B (11720279_a_at) / Fold change /veh FAM174B (11720279_a_at) / RFU TMPRSS4 (11748680_a_at) / Fold change /veh TMPRSS4 (11748680_a_at) / RFU FAM212B (11763350_a_at) / Fold change /veh FAM212B (11763350_a_at) / RFU PLEKHG5 (11743358_a_at) / Fold change /veh PLEKHG5 (11743358_a_at) / RFU ZSCAN30 (11745921_a_at) / Fold change /veh ZSCAN30 (11745921_a_at) / RFU CMKLR1 (11741424_a_at) / Fold change /veh CMKLR1 (11741424_a_at) / RFU LOC101060620 /// MAPK8IP1 (11723275_at) / Fold change /veh LOC101060620 /// MAPK8IP1 (11723275_at) / RFU SPTSSB (11747773_x_at) / Fold change /veh SPTSSB (11747773_x_at) / RFU PRSS12 (11739890_at) / Fold change /veh PRSS12 (11739890_at) / RFU BIN1 (11741810_x_at) / Fold change /veh BIN1 (11741810_x_at) / RFU WNT11 (11732464_a_at) / Fold change /veh WNT11 (11732464_a_at) / RFU C10orf10 (11716521_a_at) / Fold change /veh C10orf10 (11716521_a_at) / RFU C5orf56 (11738089_at) / Fold change /veh C5orf56 (11738089_at) / RFU CYB561 (11721691_x_at) / Fold change /veh CYB561 (11721691_x_at) / RFU ANKRD19P (11752326_a_at) / Fold change /veh ANKRD19P (11752326_a_at) / RFU OR2T12 /// OR2T33 /// OR2T8 (11738714_s_at) / Fold change /veh OR2T12 /// OR2T33 /// OR2T8 (11738714_s_at) / RFU VCAN (11748164_a_at) / Fold change /veh VCAN (11748164_a_at) / RFU JSRP1 (11732532_at) / Fold change /veh JSRP1 (11732532_at) / RFU KRTAP10-11 (11738290_x_at) / Fold change /veh KRTAP10-11 (11738290_x_at) / RFU MYO3A (11730013_a_at) / Fold change /veh MYO3A (11730013_a_at) / RFU EBF3 (11725865_a_at) / Fold change /veh EBF3 (11725865_a_at) / RFU CAMK2N1 (11719241_x_at) / Fold change /veh CAMK2N1 (11719241_x_at) / RFU C5orf56 (11738088_a_at) / Fold change /veh C5orf56 (11738088_a_at) / RFU OLFML3 (11715873_a_at) / Fold change /veh OLFML3 (11715873_a_at) / RFU LOC100653217 /// NTM (11731650_a_at) / Fold change /veh LOC100653217 /// NTM (11731650_a_at) / RFU MAPK11 (11762145_a_at) / Fold change /veh MAPK11 (11762145_a_at) / RFU FIZ1 (11724087_x_at) / Fold change /veh FIZ1 (11724087_x_at) / RFU OASL (11726364_x_at) / Fold change /veh OASL (11726364_x_at) / RFU SOX15 (11748057_x_at) / Fold change /veh SOX15 (11748057_x_at) / RFU CD79A (11719716_a_at) / Fold change /veh CD79A (11719716_a_at) / RFU HIST1H1D (11736915_at) / Fold change /veh HIST1H1D (11736915_at) / RFU CASKIN2 (11723855_a_at) / Fold change /veh CASKIN2 (11723855_a_at) / RFU LOC730098 (11760151_x_at) / Fold change /veh LOC730098 (11760151_x_at) / RFU OR4N2 (11742367_at) / Fold change /veh OR4N2 (11742367_at) / RFU PRRT2 (11749266_a_at) / Fold change /veh PRRT2 (11749266_a_at) / RFU SNX32 (11753110_a_at) / Fold change /veh SNX32 (11753110_a_at) / RFU CDHR5 (11726645_a_at) / Fold change /veh CDHR5 (11726645_a_at) / RFU RCAN1 (11760418_a_at) / Fold change /veh RCAN1 (11760418_a_at) / RFU FAM167A (11723789_a_at) / Fold change /veh FAM167A (11723789_a_at) / RFU FAM26E (11764081_at) / Fold change /veh FAM26E (11764081_at) / RFU ISYNA1 (11749810_s_at) / Fold change /veh ISYNA1 (11749810_s_at) / RFU ACY1 (11761880_at) / Fold change /veh ACY1 (11761880_at) / RFU 11764098_at / Fold change /veh 11764098_at / RFU SAMD14 (11745864_x_at) / Fold change /veh SAMD14 (11745864_x_at) / RFU NPB (11741838_a_at) / Fold change /veh NPB (11741838_a_at) / RFU TMPRSS6 (11731388_a_at) / Fold change /veh TMPRSS6 (11731388_a_at) / RFU KRTAP10-2 (11738614_at) / Fold change /veh KRTAP10-2 (11738614_at) / RFU ARHGAP8 /// PRR5-ARHGAP8 (11727945_x_at) / Fold change /veh ARHGAP8 /// PRR5-ARHGAP8 (11727945_x_at) / RFU KRTAP5-7 /// NADSYN1 (11734609_at) / Fold change /veh KRTAP5-7 /// NADSYN1 (11734609_at) / RFU RASL12 (11751679_a_at) / Fold change /veh RASL12 (11751679_a_at) / RFU CDKN2B (11736163_a_at) / Fold change /veh CDKN2B (11736163_a_at) / RFU PRF1 (11729649_at) / Fold change /veh PRF1 (11729649_at) / RFU, ZNF638 /// ZNF638-IT1 / Fold change vs veh, ZNF638 /// ZNF638-IT1 / RFU, PANK3 / Fold change vs veh, PANK3 / RFU, SH3YL1 / Fold change vs veh, SH3YL1 / RFU, ZEB2 / Fold change vs veh, ZEB2 / RFU, NRIP1 / Fold change vs veh, NRIP1 / RFU, PTTG1IP / Fold change vs veh, PTTG1IP / RFU, CAPN2 / Fold change vs veh, CAPN2 / RFU, MED14 / Fold change vs veh, MED14 / RFU, SNORA58 / Fold change vs veh, SNORA58 / RFU, C1orf63 / Fold change vs veh, C1orf63 / RFU, LRRFIP1 / Fold change vs veh, LRRFIP1 / RFU, NDUFAF7 / Fold change vs veh, NDUFAF7 / RFU, SLC12A2 / Fold change vs veh, SLC12A2 / RFU, IBTK / Fold change vs veh, IBTK / RFU, ESF1 / Fold change vs veh, ESF1 / Fold change vs veh, TMEM50B / RFU, TAOK1 / Fold change vs veh, TAOK1 / RFU, ACBD3 / Fold change vs veh, ACBD3 / RFU, TMA16 / Fold change vs veh, TMA16 / RFU, RWDD3 / Fold change vs veh, RWDD3 / RFU, BCAT1 / Fold change vs veh, BCAT1 / RFU, EDEM3 / Fold change vs veh, EDEM3 / RFU, TMEM33 / Fold change vs veh, TMEM33 / RFU, WDR75 / Fold change vs veh, WDR75 / RFU, AHCTF1 / Fold change vs veh, AHCTF1 / RFU, TFRC / Fold change vs veh, TFRC / RFU, ZDHHC17 / Fold change vs veh, ZDHHC17 / RFU, NOM1 / Fold change vs veh, NOM1 / RFU, ARL8B / Fold change vs veh, ARL8B / RFU, ZBTB11 / Fold change vs veh, ZBTB11 / RFU, TAMM41 / Fold change vs veh, TAMM41 / RFU, KIAA1704 /// LOC100996395 / Fold change vs veh, KIAA1704 /// LOC100996395 / RFU, ING1 / Fold change vs veh, ING1 / RFU, TRMT61B / Fold change vs veh, TRMT61B / RFU, FUBP3 / Fold change vs veh, FUBP3 / RFU, TP53 / Fold change vs veh, TP53 / RFU, TNKS2 / Fold change vs veh, TNKS2 / RFU, ZFP14 / Fold change vs veh, ZFP14 / RFU, ACTR2 / Fold change vs veh, ACTR2 / RFU, PPP3R1 / Fold change vs veh, PPP3R1 / RFU, PIK3R1 / Fold change vs veh, PIK3R1 / RFU, HNRNPA1 / Fold change vs veh, HNRNPA1 / RFU, RNF170 / Fold change vs veh, RNF170 / RFU, ZNF28 / Fold change vs veh, ZNF28 / RFU, RNGTT / Fold change vs veh, RNGTT / RFU, OGT / Fold change vs veh, OGT / RFU, BRD1 / Fold change vs veh, BRD1 / RFU, MARS / Fold change vs veh, MARS / RFU, ZNF655 / Fold change vs veh, ZNF655 / RFU, FAHD1 / Fold change vs veh, FAHD1 / RFU, BDP1 / Fold change vs veh, BDP1 / RFU, LRRCC1 / Fold change vs veh, LRRCC1 / RFU, ARID1A / Fold change vs veh, ARID1A / RFU, ZNF146 / Fold change vs veh, ZNF146 / RFU, ZNF330 / Fold change vs veh, ZNF330 / RFU, GPN3 / Fold change vs veh, GPN3 / RFU, C9orf123 / Fold change vs veh, C9orf123 / RFU, N4BP2L2 / Fold change vs veh, N4BP2L2 / RFU, ARFIP1 / Fold change vs veh, ARFIP1 / RFU, FAM179B / Fold change vs veh, FAM179B / RFU, BCL10 / Fold change vs veh, BCL10 / RFU, UHRF1BP1L / Fold change vs veh, UHRF1BP1L / RFU, BET1 / Fold change vs veh, BET1 / RFU, CNOT2 / Fold change vs veh, CNOT2 / RFU, ZNF268 / Fold change vs veh, ZNF268 / Fold change vs veh, ZNF507 / RFU, DGCR2 / Fold change vs veh, DGCR2 / RFU, WDSUB1 / Fold change vs veh, WDSUB1 / Fold change vs veh, HSP90B1 /// MIR3652 / RFU, ADSS / Fold change vs veh, ADSS / RFU, GK / Fold change vs veh, GK / RFU, ZNF148 / Fold change vs veh, ZNF148 / RFU, TAF9 / Fold change vs veh, TAF9 / RFU, SLC1A5 / Fold change vs veh, SLC1A5 / RFU, SLMO2 / Fold change vs veh, SLMO2 / RFU, ABCC4 / Fold change vs veh, ABCC4 / RFU, LOC101060439 /// RAP1B / Fold change vs veh, LOC101060439 /// RAP1B / RFU, RFX7 / Fold change vs veh, RFX7 / RFU, GTPBP10 / Fold change vs veh, GTPBP10 / RFU, CNEP1R1 / Fold change vs veh, CNEP1R1 / RFU, BIVM-ERCC5 /// ERCC5 / Fold change vs veh, BIVM-ERCC5 /// ERCC5 / RFU, ILF3 / Fold change vs veh, ILF3 / RFU 11762660_at / Fold change /veh 11762660_at / RFU VCAN (11757783_s_at) / Fold change /veh VCAN (11757783_s_at) / RFU DDX43 (11728927_at) / Fold change /veh DDX43 (11728927_at) / RFU KRT8 (11758188_x_at) / Fold change /veh KRT8 (11758188_x_at) / RFU NKD1 (11759106_at) / Fold change /veh NKD1 (11759106_at) / RFU SRD5A1 (11742802_a_at) / Fold change /veh SRD5A1 (11742802_a_at) / RFU TPSAB1 /// TPSB2 (11721975_s_at) / Fold change /veh TPSAB1 /// TPSB2 (11721975_s_at) / RFU GSTM3 (11746129_a_at) / Fold change /veh GSTM3 (11746129_a_at) / RFU IL23R (11737362_x_at) / Fold change /veh IL23R (11737362_x_at) / RFU TMEM51 (11727254_a_at) / Fold change /veh TMEM51 (11727254_a_at) / RFU PIWIL2 (11732686_x_at) / Fold change /veh PIWIL2 (11732686_x_at) / RFU ORM1 (11744905_x_at) / Fold change /veh ORM1 (11744905_x_at) / RFU CCDC152 (11743942_at) / Fold change /veh CCDC152 (11743942_at) / RFU ECM1 (11717891_a_at) / Fold change /veh ECM1 (11717891_a_at) / RFU IL23R (11748794_a_at) / Fold change /veh IL23R (11748794_a_at) / RFU TNFAIP8L3 (11732012_x_at) / Fold change /veh TNFAIP8L3 (11732012_x_at) / RFU MBOAT4 (11741988_at) / Fold change /veh MBOAT4 (11741988_at) / RFU 11764193_at / Fold change /veh 11764193_at / RFU TMEM53 (11763286_at) / Fold change /veh TMEM53 (11763286_at) / RFU MAGEB2 (11727129_at) / Fold change /veh MAGEB2 (11727129_at) / RFU TMEM200A (11744735_a_at) / Fold change /veh TMEM200A (11744735_a_at) / RFU CCDC152 (11751479_a_at) / Fold change /veh CCDC152 (11751479_a_at) / RFU FAM211A (11726209_a_at) / Fold change /veh FAM211A (11726209_a_at) / RFU RGS16 (11746705_a_at) / Fold change /veh RGS16 (11746705_a_at) / RFU VCAN (11755009_s_at) / Fold change /veh VCAN (11755009_s_at) / RFU RHOB (11743442_s_at) / Fold change /veh RHOB (11743442_s_at) / RFU RGS16 (11720943_a_at) / Fold change /veh RGS16 (11720943_a_at) / RFU RGS16 (11720944_at) / Fold change /veh RGS16 (11720944_at) / RFU, VPS4B / Fold change vs veh, VPS4B / RFU, CREB1 / Fold change vs veh, CREB1 / RFU, DNAJC13 / Fold change vs veh, DNAJC13 / RFU, GNAQ / Fold change vs veh, GNAQ / RFU, CDK5R1 / Fold change vs veh, CDK5R1 / RFU, ZRANB3 / Fold change vs veh, ZRANB3 / RFU, CUL4A / Fold change vs veh, CUL4A / RFU, CCNY / Fold change vs veh, CCNY / RFU, UFL1 / Fold change vs veh, UFL1 / RFU, COG3 / Fold change vs veh, COG3 / RFU, DIAPH2 / Fold change vs veh, DIAPH2 / RFU, SKA2 / Fold change vs veh, SKA2 / RFU, AFF3 / Fold change vs veh, AFF3 / RFU, LMF1 / Fold change vs veh, LMF1 / RFU, IPO11 / Fold change vs veh, IPO11 / RFU, DFFB / Fold change vs veh, DFFB / RFU, FOXP1 / Fold change vs veh, FOXP1 / RFU, CARD8 / Fold change vs veh, CARD8 / RFU, STRN3 / Fold change vs veh, STRN3 / RFU, ADK / Fold change vs veh, ADK / RFU, RASSF2 / Fold change vs veh, RASSF2 / RFU, WIPF1 / Fold change vs veh, WIPF1 / RFU, LARP1B / Fold change vs veh, LARP1B / RFU, RASA1 / Fold change vs veh, RASA1 / RFU, RB1 / Fold change vs veh, RB1 / RFU, PPFIA1 / Fold change vs veh, PPFIA1 / RFU, MAT2A / Fold change vs veh, MAT2A / RFU, CCT5 / Fold change vs veh, CCT5 / RFU, WDR92 / Fold change vs veh, WDR92 / RFU, CUX1 / Fold change vs veh, CUX1 / RFU, TTC7A / Fold change vs veh, TTC7A / RFU, TMEM135 / Fold change vs veh, TMEM135 / RFU, DEPTOR / Fold change vs veh, DEPTOR / RFU, CPM / Fold change vs veh, CPM / RFU, DNAJB6 / Fold change vs veh, DNAJB6 / RFU, CACNA2D3 / Fold change vs veh, CACNA2D3 / RFU, DTX4 / Fold change vs veh, DTX4 / RFU, TFCP2 / Fold change vs veh, TFCP2 / RFU, GMCL1 /// GMCL1P1 / Fold change vs veh, GMCL1 /// GMCL1P1 / RFU, AEBP2 / Fold change vs veh, AEBP2 / RFU, SNHG1 /// SNORD22 /// SNORD25 /// SNORD26 /// SNORD27 /// SNORD28 /// SNORD29 /// SNORD31 / Fold change vs veh, SNHG1 /// SNORD22 /// SNORD25 /// SNORD26 /// SNORD27 /// SNORD28 /// SNORD29 /// SNORD31 / Fold change (Aza/veh), C12orf56 (ProbeSet 11735607_a_at) / Fold change (ACY-1035/veh), C12orf56 (ProbeSet 11735607_a_at) / Fold change (Aza/veh), FGFR1OP (ProbeSet 11751329_s_at) / Fold change (ACY-1035/veh), FGFR1OP (ProbeSet 11751329_s_at) / Fold change (Aza/veh), VPS36 (ProbeSet 11739960_a_at) / Fold change (ACY-1035/veh), VPS36 (ProbeSet 11739960_a_at) / RFU SYPL1 (11715823_x_at) / Fold change /veh SYPL1 (11715823_x_at) / RFU IGFBP7 (11715501_s_at) / Fold change /veh IGFBP7 (11715501_s_at) / RFU REEP3 (11722064_at) / Fold change /veh REEP3 (11722064_at) / RFU IGLL1 (11728026_x_at) / Fold change /veh IGLL1 (11728026_x_at): dose or concentration left out as unconfirmed
Conditions: ProbeSet 11725901_x_at; LIST B

With Nc1ncn([C@@H]2O[C@H](CO)[C@@H](O)[C@H]2O)c(=O)n1 [azacitidine] the “RFU, RWDD3” value was 20.92 RFU.
